Laboratory results published in ChEMBL document CHEMBL2439994, “Synthesis and biological evaluation of hydrazidomycin analogues” (Bioorg Med Chem Lett, 2013).

Columns and labels:
[1] = Antiproliferative activity against HUVEC after 72 hrs by resazurin dye reduction assay; assay type: cell-based; conditions: human, HUVEC cells
K562 = test: Antiproliferative activity against human K562 cells after 72 hrs by resazurin dye reduction assay; assay type: functional; conditions: K562, 72 h
HeLa = test: Cytotoxicity against human HeLa cells after 72 hrs by methylene blue staining; assay type: functional
HT-29 = test: Antiproliferative activity against human HT-29 cells after 72 hrs by resazurin dye reduction assay; assay type: functional; conditions: HT-29, 72 h

Compound | GI50 (K562) [µM] | GI50 (HT-29) [nM] | GI50 at 72 h [1] [µM] | CC50 (HeLa) [µM]
CCCCCCCC/C=C\N(NC(=O)COC)C(=O)OC(C)(C)C | 61.3 | – | 85.5 | 104
CCCCCCCCCCCC/C=C/N(NC(=O)COC)C(=O)CCCCCCCCC | > 110 | – | 46.2 | > 110
CCCCCCCCCCNNC(=O)COC | 167 | – | 156 | 138
CCCCCCCCCCCC/C=C\N(NC(=O)CCl)C(=O)CCCCCCCCC | 18.4 | – | 57.5 | 104
CCCCCCCC/C=C/N(NC(=O)COC)C(=O)OC(C)(C)C | 45 | – | 49.9 | 83.2
CCCCCCCCCCCC/C=C\N(NC(=O)COC)C(=O)CCCCCCCCC [HYDRAZIDOMYCIN A] | > 110 | 460 | 70.7 | 108

Second part, led by results:

GI50 (K562) [µM] | GI50 (HT-29) [nM] | Compound | GI50 at 72 h [1] [µM] | CC50 (HeLa) [µM]
> 110 | – | CCCCCCCCCCCCCCN(NC(=O)COC)C(=O)CCCCCCCCC | 103 | > 110
58.7 | – | CCCCCCCCCCCCCCN(N)C(=O)OC(C)(C)C | 27.1 | 96.5
41.9 | – | CCCCCCCCCCCC/C=C\N(NC(C)=O)C(=O)CCCCCCCCC | 39.7 | 83.3
40.9 | – | CCCCCCCCCCCCCCN(NC(=O)COC)C(=O)OC(C)(C)C | 12.2 | 41.9
66.2 | – | CCCCCCCCCCCCCCNNC(=O)COC | 33.6 | 59.6
40.6 | – | CCCCCCCCCCN(NC(=O)COC)C(=O)OC(C)(C)C | 22.9 | 104
97.3 | – | CCCCCCCCCCN(NC(=O)COC)C(=O)CCCCCCCCC | 114 | > 125
41.4 | – | CCCCCCCCCCCC/C=C/N(NC(=O)COC)C(=O)OC(C)(C)C | 36.1 | 57.7
28.3 | – | CCCCCCCCCCCC/C=C\N(NC(=O)COC)C(=O)OC(C)(C)C | 15.8 | 85.3
